Laboratory results as given in BindingDB's records for doi:10.1021/jm050513m (The University of Texas At Houston, 2005).
Square brackets hold non-standard residues; d marks the D form. Peptide text beside a SMILES is read from it. * marks the point of attachment. ξ: configuration not given here. pY = N[C@@H](Cc1ccc(OP(=O)(O)O)cc1)C(=O)O; Met(O2) = CS(=O)(=O)CC[C@H](N)C(=O)O; NMeL = CN[C@@H](CC(C)C)C(=O)O; Thr(3ξ) = CC(O)[C@H](N)C(=O)O; 3Abz = Nc1cccc(C(=O)O)c1; Ac6c = NC1(C(=O)O)CCCCC1; Cbz = O=C(OCc1ccccc1)*; Inp = O=C(O)C1CCNCC1; NHBn = c1ccc(CN*)cc1; Propionyl = CCC(=O)*; GABA = NCCCC(=O)O; NEt2 = CCN(CC)*

target: Signal transducer and activator of transcription 3 (Mus musculus, UniProt P42227); experiment: Fluorescence Polarization Assay; conditions: not given
Method: Fluorescence polarization (FP) binding assay is utilizing the intrinsic property of the fluorescent probe, which will have low polarization value when free in solution. On binding to a target, the polarization of the probe will increase. Reaction mixtures of full length STAT3 alpha and the probe were placed in wells of a 96-well microtiter plate. The test peptide solution was added to each well. Fluorescence polarization was then read in a Tecan Polarian plate reader. The IC50 values were obtained from nonlinear regression analysis in the one-site competition mode. Peptides were assayed three times using three separate Stat3-probe preparations. IC50 values are reported as the mean of three IC50 values +/- the standard deviation.

Chain of Signal transducer and activator of transcription 3 (P42227 whole entry): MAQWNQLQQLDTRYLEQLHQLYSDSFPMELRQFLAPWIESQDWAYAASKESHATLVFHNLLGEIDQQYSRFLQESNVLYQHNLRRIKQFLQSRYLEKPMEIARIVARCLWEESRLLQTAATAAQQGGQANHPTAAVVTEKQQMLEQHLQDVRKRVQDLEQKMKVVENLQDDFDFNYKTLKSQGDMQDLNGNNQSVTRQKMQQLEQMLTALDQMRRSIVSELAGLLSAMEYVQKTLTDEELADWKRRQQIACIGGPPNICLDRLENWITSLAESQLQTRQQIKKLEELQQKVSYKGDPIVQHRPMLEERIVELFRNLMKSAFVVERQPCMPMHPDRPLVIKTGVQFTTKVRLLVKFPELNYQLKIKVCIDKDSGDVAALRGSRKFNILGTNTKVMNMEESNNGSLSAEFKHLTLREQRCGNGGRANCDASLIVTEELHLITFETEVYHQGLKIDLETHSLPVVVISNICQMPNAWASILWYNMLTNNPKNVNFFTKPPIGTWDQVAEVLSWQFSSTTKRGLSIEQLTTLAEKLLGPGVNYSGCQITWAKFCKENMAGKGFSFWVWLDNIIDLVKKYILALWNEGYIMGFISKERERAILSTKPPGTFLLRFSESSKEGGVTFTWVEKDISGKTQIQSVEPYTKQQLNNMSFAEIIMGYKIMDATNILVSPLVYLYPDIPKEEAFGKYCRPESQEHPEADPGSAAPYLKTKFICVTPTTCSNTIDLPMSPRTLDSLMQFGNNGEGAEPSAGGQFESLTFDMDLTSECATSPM

`CC(=O)N[C@@H](Cc1ccc(OP(=O)(O)O)cc1)C(=O)N[C@@H](CC(C)C)C(=O)N1CCC[C@H]1C(=O)N1CCC(CC(N)=O)C1` (stereo partly drawn) [4-[(2S)-2-{[(2S)-1-[(2S)-2-{[3-(carbamoylmethyl)pyrrolidin-1-yl]carbonyl}pyrrolidin-1-yl]-4-methyl-1-oxopentan-2-yl]carbamoyl}-2-acetamidoethyl]phenoxyphosphonic acid] and `CC(=O)N[C@@H](Cc1ccc(OP(=O)(O)O)cc1)C(=O)N[C@@H](CC(C)C)C(=O)N1CCC[C@H]1C(=O)NCCCC(N)=O` [4-[(2S)-2-{[(2S)-1-[(2S)-2-[(3-carbamoylpropyl)carbamoyl]pyrrolidin-1-yl]-4-methyl-1-oxopentan-2-yl]carbamoyl}-2-acetamidoethyl]phenoxyphosphonic acid] (Ac-[pY]LP[GABA]-NH2) are within 1.5-fold of each other in IC50: 1690 nM for the first, 1780 nM for the second.

First: CC(=O)N[C@@H](Cc1ccc(OP(=O)(O)O)cc1)C(=O)N[C@@H](CC(C)C)C(=O)N1CCC[C@H]1C(=O)N[C@@H](CCC(N)=O)C(=O)NCc1ccccc1 (Ac-[pY]LPQ-NHBn)
Second: CNC(=O)[C@H](CCC(N)=O)NC(=O)[C@@H]1CCCN1C(=O)[C@H](CC(C)C)NC(=O)[C@H](Cc1ccc(OP(=O)(O)O)cc1)NC(C)=O [4-[(2S)-2-{[(2S)-1-[(2S)-2-{[(1S)-3-carbamoyl-1-(methylcarbamoyl)propyl]carbamoyl}pyrrolidin-1-yl]-4-methyl-1-oxopentan-2-yl]carbamoyl}-2-acetamidoethyl]phenoxyphosphonic acid] (Ac-[pY]LPQ-NHMe)
The IC50 of the first is 2.2-fold lower: 409 nM for the first, 882 nM for the second.

Compared with `CCN(CC)C(=O)[C@H](CCC(N)=O)NC(=O)[C@@H]1CCCN1C(=O)[C@H](CC(C)C)NC(=O)[C@H](Cc1ccc(OP(=O)(O)O)cc1)NC(C)=O` [4-[(2S)-2-{[(2S)-1-[(2S)-2-{[(1S)-3-carbamoyl-1-(diethylcarbamoyl)propyl]carbamoyl}pyrrolidin-1-yl]-4-methyl-1-oxopentan-2-yl]carbamoyl}-2-acetamidoethyl]phenoxyphosphonic acid] (Ac-[pY]LPQ-NEt2), `CC(=O)N[C@@H](Cc1ccc(OP(=O)(O)O)cc1)C(=O)N[C@@H](CC(C)C)C(=O)N1CCC[C@H]1C(=O)N[C@@H](CCC(N)=O)C(=O)N(C)C` [4-[(2S)-2-{[(2S)-1-[(2S)-2-{[(1S)-3-carbamoyl-1-(dimethylcarbamoyl)propyl]carbamoyl}pyrrolidin-1-yl]-4-methyl-1-oxopentan-2-yl]carbamoyl}-2-acetamidoethyl]phenoxyphosphonic acid] (Ac-[pY]LPQ-NMe2) is 2.3-fold lower in IC50: 4220 nM for the first, 1850 nM for the second. The second is the more potent here.

With `CC(=O)N[C@@H](Cc1ccc(OP(=O)(O)O)cc1)C(=O)N[C@@H](CC(C)C)C(=O)N1CCC[C@H]1C(=O)Nc1cccc(C(N)=O)c1` [4-[(2S)-2-{[(2S)-1-[(2S)-2-[(3-carbamoylphenyl)carbamoyl]pyrrolidin-1-yl]-4-methyl-1-oxopentan-2-yl]carbamoyl}-2-acetamidoethyl]phenoxyphosphonic acid] (Ac-[pY]LP[3Abz]-NH2) the IC50 was 36600 nM.

same assay, conditions: pH 7.5; 22 °C

First: CC(C)C[C@H](NC(=O)[C@H](Cc1ccc(OP(=O)(O)O)cc1)NC(=O)OCc1ccccc1)C(=O)N1CCC[C@H]1C(=O)N[C@@H](CCC(N)=O)C(=O)N[C@H](C(N)=O)C(C)O (stereo partly drawn) [4-[(2S)-2-{[(benzyloxy)carbonyl]amino}-2-{[(2S)-1-[(2S)-2-{[(1S)-3-carbamoyl-1-{[(1S,2S)-1-carbamoyl-2-hydroxypropyl]carbamoyl}propyl]carbamoyl}pyrrolidin-1-yl]-4-methyl-1-oxopentan-2-yl]carbamoyl}ethyl]phenoxyphosphonic acid] (Cbz-[pY]LPQ[Thr(3ξ)]-NH2)
Second: CC(=O)N[C@@H](Cc1ccc(OP(=O)(O)O)cc1)C(=O)N[C@@H](Cc1ccccc1)C(=O)N1CCC[C@H]1C(=O)N[C@@H](CCC(N)=O)C(=O)N[C@H](C(N)=O)C(C)O (stereo partly drawn) [4-[(2S)-2-{[(2S)-1-[(2S)-2-{[(1S)-3-carbamoyl-1-{[(1S,2S)-1-carbamoyl-2-hydroxypropyl]carbamoyl}propyl]carbamoyl}pyrrolidin-1-yl]-1-oxo-3-phenylpropan-2-yl]carbamoyl}-2-acetamidoethyl]phenoxyphosphonic acid] (Ac-[pY]FPQ[Thr(3ξ)]-NH2)
The IC50 of the first is 2.5-fold lower: 750 nM for the first, 1890 nM for the second. The first is the more potent here.

Compared with `CC(=O)N[C@@H](Cc1ccc(OP(=O)(O)O)cc1)C(=O)N(C)[C@@H](CC(C)C)C(=O)N1CCC[C@H]1C(=O)N[C@@H](CCC(N)=O)C(=O)N[C@H](C(N)=O)C(C)O` (stereo partly drawn) [4-[(2S)-2-{[(2S)-1-[(2S)-2-{[(1S)-3-carbamoyl-1-{[(1S,2S)-1-carbamoyl-2-hydroxypropyl]carbamoyl}propyl]carbamoyl}pyrrolidin-1-yl]-4-methyl-1-oxopentan-2-yl](methyl)carbamoyl}-2-acetamidoethyl]phenoxyphosphonic acid] (Ac-[pY][NMeL]PQ[Thr(3ξ)]-NH2), `CCC(=O)N[C@@H](Cc1ccc(OP(=O)(O)O)cc1)C(=O)N[C@@H](CC(C)C)C(=O)N1CCC[C@H]1C(=O)N[C@@H](CCC(N)=O)C(=O)N[C@H](C(N)=O)C(C)O` (stereo partly drawn) [4-[(2S)-2-{[(2S)-1-[(2S)-2-{[(1S)-3-carbamoyl-1-{[(1S,2S)-1-carbamoyl-2-hydroxypropyl]carbamoyl}propyl]carbamoyl}pyrrolidin-1-yl]-4-methyl-1-oxopentan-2-yl]carbamoyl}-2-propanamidoethyl]phenoxyphosphonic acid] (Propionyl-[pY]LPQ[Thr(3ξ)]-NH2) is lower in IC50: over 100000 nM for the first, 497 nM for the second. The second is the more potent here.

Going from `CC(=O)N[C@@H](Cc1ccc(OP(=O)(O)O)cc1)C(=O)N[C@@H](CC(C)C)C(=O)N1CCC[C@H]1C(=O)N[C@@H](CCS(C)(=O)=O)C(=O)N[C@H](C(N)=O)C(C)O` (stereo partly drawn) [4-[(2S)-2-{[(2S)-1-[(2S)-2-{[(1S)-1-{[(1S,2S)-1-carbamoyl-2-hydroxypropyl]carbamoyl}-3-methanesulfonylpropyl]carbamoyl}pyrrolidin-1-yl]-4-methyl-1-oxopentan-2-yl]carbamoyl}-2-acetamidoethyl]phenoxyphosphonic acid] (Ac-[pY]LP[Met(O2)][Thr(3ξ)]-NH2) to `CC(=O)N[C@@H](Cc1ccc(OP(=O)(O)O)cc1)C(=O)N[C@@H](CC(C)C)C(=O)N1CCC(C(=O)N[C@@H](CCC(N)=O)C(=O)N[C@H](C(N)=O)C(C)O)CC1` (stereo partly drawn) [4-[(2S)-2-{[(2S)-1-(4-{[(1S)-3-carbamoyl-1-{[(1S,2S)-1-carbamoyl-2-hydroxypropyl]carbamoyl}propyl]carbamoyl}piperidin-1-yl)-4-methyl-1-oxopentan-2-yl]carbamoyl}-2-acetamidoethyl]phenoxyphosphonic acid] (Ac-[pY]L[Inp]Q[Thr(3ξ)]-NH2), the IC50 rises from 13900 nM to 34600 nM (2.5-fold).

Compound `CC(=O)N[C@@H](Cc1ccc(OP(=O)(O)O)cc1)C(=O)N[C@@H](CC(C)C)C(=O)NC1(C(=O)N[C@@H](CCC(N)=O)C(=O)N[C@H](C(N)=O)C(C)O)CCCCC1` (stereo partly drawn) [4-[(2S)-2-{[(1S)-1-[(1-{[(1S)-3-carbamoyl-1-{[(1S,2S)-1-carbamoyl-2-hydroxypropyl]carbamoyl}propyl]carbamoyl}cyclohexyl)carbamoyl]-3-methylbutyl]carbamoyl}-2-acetamidoethyl]phenoxyphosphonic acid] (Ac-[pY]L[Ac6c]Q[Thr(3ξ)]-NH2) has an IC50 of 13400 nM.
